Bridge positions count the residues as written; N and C are the ends. Square brackets hold non-standard residues; d marks the D form. Ends that are not written are not given here. hPhe = N[C@@H](CCc1ccccc1)C(=O)O; Cit = NC(=O)NCCC[C@H](N)C(=O)O

The record followed here is patent publication US11957732B2, “Compositions and methods for sensitizing low responsive tumors to cancer therapy” (priority 2016, dated 2024).

The test system of one assay is MGC-803 xenograft. Description: Synergy with doxorubicin in gastric cancer animal model in vivo. The following applies: 1 mg/kg i.p. every other day for 3 weeks. The arrangement: species or system athymic BALB/cA nu/nu female mice.
Assay [1] relates to SGC-7901 gastric cancer cells. The experiment in a line: Growth suppression, apoptosis and IC50 in gastric cancer cells SGC-7901. The class given is cell-based. The following applies: Homo sapiens, read-out: IC50 (IC50 drift, DOX only or AMP-001/DOX combination); SGC-7901 cells.
For assay [2], the system named is MGC-803 gastric cancer cells. Description: Growth suppression, apoptosis and IC50 in gastric cancer cells MGC-803. The class given is cell-based. The following applies: Homo sapiens, MGC-803, read-out: IC50 (IC50 drift, DOX only or AMP-001/DOX combination).
The test system of a further assay is iCell Cardiomyocytes. Description: cells. The note with it: Homo sapiens, Cardiomyocyte, read-out: IC50 in cardiomyocytes.
For assay [3], the system named is MDA-MB-231 triple negative breast cancer cells. The experiment in a line: Cell death / apoptosis induction, concentration dependent treatment (FACS). The note with it: TNBC MDA-MB-231 cells, read-out: cell death effect IC-50. It is filed as cell-based.
Description: Briefly, MDA-MB-231 cells are seeded in 12-well culture plates and grown to 80% confluency, followed by 72 h treatment with various concentrations of drugs in various combinations; untreated MDA-MB-231 cells are used as control. After the completion of treatment time cells are trypsinized, washed, and analyzed for dead or apoptotic cells by staining with propidium iodide (10 μg/ml) for 15 min, followed by flow cytometry (FACS Aria Ill, BD Biosciences, San Jose, CA, USA) at the Stanford FACS Facility. Data are analyzed by Flow Jo FACS analysis software (Tree Star, Ashland, OR, USA).
Another assay has as its system MDA-MB-231 tumor cells. The experiment in a line: Synergistic cell death effect of AMP compounds with chemotherapy (doxorubicin, carboplatin). The class given is cell-based. On the procedure:
MMP2 cleavable AMP-008 was dissolved in culture medium and sonicated for 2 min each and repeated for 3 times. After the cells treated with different concentration of doxorubicin HCl (Bedford Lab, Bedford, OH), AMP compounds alone or combination of doxorubicin and AMP compounds were tested for 17 hrs incubation respectively, the cells were washed three times with PBS (pH 7.4) and incubated with Cy5.5 Annexin-V (BD Bioscience Pharmingen) according to the instructions of the manufacture. The cells were imaged using Nikon Eclipse TE-300 fluorescence microscope and counted under Ex/Em 620-680 nm nm/700-750 nm.

Description for iCell Cardiomyocytes: Cardiomyocytes were derived from this engineered stem cell clone line as follows. Stem cell aggregates were formed from single cells and cultured in suspension in medium containing zebrafish bFGF (basic fibroblast growth factor) and fetal bovine serum. Upon observation of beating cardiac aggregates, cultures were subjected to blasticidin selection at 25 ug/ml to enrich the cardiomyocyte population. Cardiomyocyte aggregate cultures were maintained in Dulbecco's modified Eagle's medium (DMEM) containing 10% fetal bovine serum during cardiomyocyte selection through the duration of the culture prior to cryopreservation. At 30 to 32 days of culture the enriched, stem cell-derived cardiomyocytes were subjected to enzymatic dissociation using 0.5% trypsin to obtain single cell suspensions of purified cardiomyocytes, which were >98% cardiac troponin-T (cTNT) positive. These cells (iCell® Cardiomyocytes) were cryopreserved and stored in liquid nitrogen before delivery to Ionic Transport Assays from Cellular Dynamics International, Madison, WI.
For this study, single vials containing≈4.5×10^6 cardiomyocytes were thawed by immersing the frozen cryo-vial in a 37° C. water bath, transferring thawed cardiomyocytes into a 50 ml tube and diluting them with room temperature plating medium (iCell® Cardiomyocyte Plating Medium (iCPM), Cellular Dynamics International). […]

In the case of `COc1cccc2c1C(=O)c1c(O)c3c(c(O)c1C2=O)C[C@@](O)(C(=O)CO)C[C@@H]3O[C@H]1C[C@H](N)[C@H](O)[C@H](C)O1` [doxorubicin], the “extent of tumor regression” value in the assay on MGC-803 xenograft is “reasonable”. Moreover, the IC50 in assay [1] is 0.436 µM; in assay [2], 1.08 µM; in the assay with iCell Cardiomyocytes, 9.6 µM.

For “AMP-004: human beta-defensin joined to MMP2 cleavable peptide, SEQ ID NO: 003, three disulfide bonds (Ac-EGGGP[Cit]G[hPhe]YLDHYNCVSSGGQCLYSACPIFTKIQGTCYRGKAKCCK; disulfide 15-44, 22-37, 27-45)”, the IC50 in assay [3] was approximately 5 µM. In the assay with MDA-MB-231 tumor cells (AMP compound and doxorubicin administered together), the “synergistic effect when both were administered together” value is “Synergistic effect was same”. Besides, the “cell death, synergistic (not additive) effect” value in the assay on MDA-MB-231 tumor cells (pretreatment with AMP compound for 6 hrs followed by 1 μM doxorubicin) was “greater than 80%”.
